Test results published in patent publication US20140357582A1, “DESRHAMNOSYL ACTEOSIDE-CONTAINING OLIVE EXTRACT” (SUNTORY HOLDINGS LIMITED, priority 2012, published 2014).

Legend:
SD (IGS) male rats = assay: Blood antioxidative activity (FRAP and ORAC methods) in rats after oral administration; type: in vivo, rat; conditions: 5 mL/kg; for blood antioxidative activity after administration: 0.8 mM suspension in 0.5% CMC or olive oil, FRAP and ORAC, up to 24 hours
Description: The influence of DRA on blood antioxidative activity was evaluated using rats. The evaluation of blood antioxidative activity was performed using the FRAP and ORAC methods. The DRA and acteoside used in this evaluation were those prepared by the same procedures as in Example 2 and Preparation Example 2, respectively.
(§1) SD (IGS) male rats (6 weeks old) were purchased from Charles River Laboratories Japan, Inc. After the rats were acclimated to the test environment for one week, those rats which grew normally were subjected to testing. The rats were fasted overnight and divided into five groups each consisting of three rats. Rats were orally administered a 0.5% CMC solution (Group 1), a suspension of DRA in 0.5% CMC (0.8 mM) (Group 2), a suspension of purified acteoside in 0.5% CMC (0.8 mM) (Group 3), an olive oil solution (Nacalai Tesque, Inc.; Code No. 073-26) (Group 4), and a suspension of DRA in olive oil (0.8 mM) (Group 5), each at a dose of 5 mL/kg. Before administration and 0.5, 1, 3, 6, 9 and 24 hours after administration for Groups 1-3, or before administration and 1, 3, 6, 9 and 24 hours after administration for Groups 4-5, a blood sample was collected from the caudal vein in heparinized tube and was centrifuged (at 8,000 rpm for 10 min.) to obtain plasma sample. At a later date, plasma FRAP activity as well as the ORAC activity of the supernatants obtained after deproteinization with acetone were evaluated.

[1] = Absorption in the body: blood concentrations by LC-MS/MS after oral administration; type: in vivo, rat; conditions: rats; for Cmax: male, SD (IGS), rat, 4 µmol/kg, suspension in 0.5% CMC (0.8 mM), 5 mL/kg, pooled plasma, β-glucuronidase/arylsulphatase treated, read-out: maximum blood concentration (Cmax) of the administered compound itself
Description: as §1
Among the plasma samples collected for the determination of blood antioxidative activity in Example 5, some parts of those samples from Group 1 (a 0.5% CMC solution), Group 2 (a suspension of DRA in 0.5% CMC) and Group 3 (a suspension of acteoside in 0.5% CMC) were used to determine the blood concentrations of the respective samples after administration.
After equivalent amounts of the plasma samples from the three rats in each group were mixed and homogenized, 90 μL of a helix pomatia-derived β-glucuronidase/arylsulphatase/acetate buffer (pH 5.0) was added to 90 μL of the plasma mixture and incubation was conducted at 37° C. for one hour. After 900 μL of acetonitrile was added to terminate the reaction, 10 μL of an aqueous solution of 1% ascorbic acid and 10 μL of an internal standard solution were added, and the contents were mixed and centrifuged (at 15,000 rpm for 10 min.) to recover a supernatant. The recovered supernatant was concentrated under reduced pressure, dissolved again in 50% methanol, passed through a filter, and subjected to LC-MS/MS analysis to quantify acteoside, DRA, hydroxytyrosol, and coffeic acid. The amounts of acteoside, DRA, hydroxytyrosol, and coffeic acid were determined by the ratio of each of their peak areas to the peak area of hesperidin (Wako) used as an internal standard. The LC-MS/MS analysis conditions are shown below.

[2] = oral; cited from earlier work
[3] = acteoside versus DRA; cited from earlier work
[4] = suspension in 0.5% CMC, DRA versus acteoside

Row | SMILES | blood antioxidative activity after administration (SD (IGS) male rats) | time of earlier peak of FRAP activity after administration (SD (IGS) male rats; DRA 0.8 mM, first of bimodal peaks) [h] | time of later peak of FRAP activity after administration (SD (IGS) male rats; DRA 0.8 mM, second of bimodal peaks) [h] | Cmax [1] [nM] | amount absorbed in the body relative to acteoside, by AUCs of coffeic acid [1, 4] | amount absorbed in the body relative to acteoside, by AUCs of hydroxytyrosol [1, 4] | absorbability when orally ingested [2] | in vitro antioxidative activity, comparison [3]
1 | O=C(C=Cc1ccc(O)c(O)c1)O[C@@H]1C(CO)OC(OCCc2ccc(O)c(O)c2)C(O)C1O (stereo partly shown) [DRA, desrhamnosyl acteoside] | apparent increase | 1 to 3 | 9 | < 1000 | about 13 times | about 3 times | – | –
2 | C[C@@H]1O[C@@H](O[C@@H]2[C@@H](O)[C@H](OCCc3ccc(O)c(O)c3)O[C@H](CO)[C@H]2OC(=O)/C=C/c2ccc(O)c(O)c2)[C@H](O)[C@H](O)[C@H]1O [acteoside] | little increase | – | – | < 1000 | – | – | poor absorbability | more active than DRA
